Measured values from US10329309B2, “3-(3H-imidazo[4,5-B]pyridin-2-yl)-1H-pyrazolo[4,3-B]pyridines and therapeutic uses thereof” (Samumed, LLC, priority 2015, dated 2019).

Experiments:
[1] = system: Wnt activity (Sp5-Luc reporter, SW480 colon carcinoma cells); assay: Screening assay for Wnt activity: Sp5-Luc reporter gene assay in SW480 cells; type: cell-based; settings: Homo sapiens; for inhibition at 10 µM: 10 μM compound, read-out: percent inhibition at 10 μM (given for EC50 of >10 μM); for EC50: overnight incubation, 10-point dose-response from 10 μM
Method in brief: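 Luminescence (BrightGlo) read after overnight 37 °C exposure of Sp5-Luc SW480 reporter cells, 4,000/well in 1% FBS, to compound dosed 1:3 over 10 points from 10 μM with 0.1% DMSO. Values normalized to DMSO-only cells, fitted with variable-slope four-parameter model; where EC50 exceeds 10 μM, % inhibition at 10 μM reported.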

[2] = system: primary human mesenchymal stem cells (hMSCs); assay: Induction of chondrogenesis in primary human mesenchymal stem cells (nodule imaging, Rhodamine B/Nile Red); type: cell-based; settings: hMSC chondrogenesis; for Emax: TGF-β3 as positive control, read-out: Max. Activity as % TGF-β3 activity; for EC50: concentration required to induce 50% levels of chondrogenesis vs TGF-β3, read-out: Conc (nM) of 50% TGF-β3 activity
Protocol: Representative compounds were screened using primary human mesenchymal stem cells (hMSCs) to determine their ability to induce chondrogenesis (process by which cartilage is developed).
Primary human mesenchymal stem cells (hMSCs) were purchased from Lonza (Walkersville, Md.) and expanded in Mesenchymal Stem Cell Growth Media (Lonza). Cells between passage 3 and 6 were used for the experiments.
Each compound was dissolved in DMSO as a 10 mM stock and used to prepare compound source plates. For the 96 well assay, serial dilution (1:3, 6-point dose-response curves from 2700 nM to 10 nM) and compound transfer was performed using the ECHO 550 (Labcyte, Sunnyvale, Calif.) into 96-well clear bottom assay plates (Greiner Bio-One) with appropriate DMSO backfill for a final DMSO concentration of 0.03%. hMSCs were plated at 20,000 cells/well in 250 μL/well Incomplete Chondrogenic Induction Medium (Lonza; DMEM, dexamethasone, ascorbate, insulin-transferrin-selenium [ITS supplement], gentamycin-amphotericin [GA-1000], sodium pyruvate, proline and L-glutamine). TGF-−3 (10 ng/mL) was used as a positive control for differentiation while negative control wells were treated with 75 nL DMSO for normalization and calculating EC50 values. For the 384 well assay, serial dilution (1:3, 8-point dose-response curves from 5000 nM to 2.2 nM) and compound transfer was performed using the ECHO 550 (Labcyte, Sunnyvale, Calif.) into 384-well clear bottom assay plates (Greiner Bio-One) with appropriate DMSO backfill for a final DMSO concentration of 0.03%. hMSCs were plated at 8,000 cells/well in 80 μL/well Incomplete Chondrogenic Induction Medium (Lonza; DMEM, dexamethasone, ascorbate, insulin-transferrin-selenium [ITS supplement], gentamycin-amphotericin [GA-1000], sodium pyruvate, proline and L-glutamine). TGF-β3 (10 ng/mL) was used as a positive control for differentiation while negative control wells were treated with 25 nL DMSO for normalization and calculating EC50 values. Cells were incubated at 37° C. and 5% CO2 for 6 days. To image chondrogenic nodules, the cells were fixed using 4% formaldehyde (Electron Microscopy Sciences), and stained with 2 μg/mL Rhodamine B (Sigma-Aldrich) and 20 μM Nile Red (Sigma-Aldrich) [Johnson K., et. al, A Stem Cell-Based Approach to Cartilage Repair, Science, (2012), 336(6082), 717-721]. The nodules imaged (25 images per well for 96 well plates and 9 images per well for 384 well plates at 10× magnification) by excitation at 531 nm and emission at 625 nm and quantified using the CellInsight CX5 (Thermo Scientific). Area of nodules in each well was normalized to the average of 3 DMSO treated wells on the same plate using Excel (Microsoft Inc.). The normalized averages (fold change over DMSO) of 2 or 3 replicate wells for each compound concentration were calculated. Due to solubility limitations of some of the compounds, curve fitting was incomplete leading to inaccurate EC50 determinations.
Using TGF-β3 as a positive control, the concentration of representative compounds required to induce 50% levels of chondrogenesis is reported. In addition, the maximum activity of each compound and the respective dose that each compound reached maximum chondrogenesis activity is reported.

EC50 [1]	EC50 [2]	Compound	inhibition at 10 µM [1]	Emax [2]
> 10000 nM	–	Cc1cn(-c2ccnc3[nH]c(-c4n[nH]c5ccc(-c6cncc(CN7CCCC7)c6)nc45)nc23)cn1 [Compound 210, 3-(7-(4-methyl-1H-imidazol-1-yl)-3H-imidazo[4,5-b]pyridin-2-yl)-5-(5-(pyrrolidin-1-ylmethyl)pyridin-3-yl)-1H-pyrazolo[4,3-b]pyridine]	31.5%	49%
> 10000 nM	300 nM	Cc1cn(-c2ccnc3[nH]c(-c4n[nH]c5ccc(-c6cncc(NC(=O)C7CCC7)c6)nc45)nc23)cn1 [Compound 217, N-(5-(3-(7-(4-methyl-1H-imidazol-1-yl)-3H-imidazo[4,5-b]pyridin-2-yl)-1H-pyrazolo[4,3-b]pyridin-5-yl)pyridin-3-yl)cyclobutanecarboxamide]	13.9%	69%
> 10000 nM	–	CN1CCN(c2ccnc3[nH]c(-c4n[nH]c5ccc(-c6cncc(N)c6)nc45)nc23)CC1 [Compound 227, 5-(3-(7-(4-methylpiperazin-1-yl)-3H-imidazo[4,5-b]pyridin-2-yl)-1H-pyrazolo[4,3-b]pyridin-5-yl)pyridin-3-amine]	8.2%	47%
> 10000 nM	900 nM	CC(C)C(=O)Nc1cncc(-c2ccc3[nH]nc(-c4nc5c(N6CCN(C)CC6)ccnc5[nH]4)c3n2)c1 [Compound 233, N-(5-(3-(7-(4-methylpiperazin-1-yl)-3H-imidazo[4,5-b]pyridin-2-yl)-1H-pyrazolo [4,3-b]pyridin-5-yl)pyridin-3-yl)isobutyramide]	2.3%	62%
> 10000 nM	10 nM	c1cncc(-c2ccc3[nH]nc(-c4nc5cccnc5[nH]4)c3n2)c1 [Compound 256, 3-(3H-imidazo[4,5-b]pyridin-2-yl)-5-(pyridin-3-yl)-1H-pyrazolo[4,3-b]pyridine]	43.4%	74%
> 10000 nM	–	CCC(=O)Nc1cncc(-c2ccc3[nH]nc(-c4nc5c(-c6ccsc6)ccnc5[nH]4)c3n2)c1 [Compound 281, N-(5-(3-(7-(thiophen-3-yl)-3H-imidazo[4,5-b]pyridin-2-yl)-1H-pyrazolo[4,3-b]pyridin-5-yl)pyridin-3-yl)propionamide]	28.3%	38%
> 10000 nM	900 nM	CN(C)c1cncc(-c2ccc3[nH]nc(-c4nc5c(-c6cccs6)ccnc5[nH]4)c3n2)c1 [Compound 343, N,N-dimethyl-5-(3-(7-(thiophen-2-yl)-3H-imidazo[4,5-b]pyridin-2-yl)-1H-pyrazolo [4,3-b]pyridin-5-yl)pyridin-3-amine]	31.7%	57%
> 10000 nM	21 nM	CCNCc1cncc(-c2ccc3[nH]nc(-c4nc5c(-c6cc(F)cc(NCCN(C)C)c6)ccnc5[nH]4)c3n2)c1 [Compound 454, N^1-(3-(2-(5-(5-((ethylamino)methyl)pyridin-3-yl)-1H-pyrazolo[4,3-b]pyridin-3-yl)-3H-imidazo[4,5-b]pyridin-7-yl)-5-fluorophenyl)-N^2,N^2-dimethylethane-1,2-diamine]	43.4%	149%
> 10000 nM	10 nM	CCCCC(=O)Nc1cncc(-c2ccc3[nH]nc(-c4nc5c(-c6cc(F)cc(NCCN(C)C)c6)ccnc5[nH]4)c3n2)c1 [Compound 467, N-(5-(3-(7-(3-((2-(dimethylamino)ethyl)amino)-5-fluorophenyl)-3H-imidazo[4,5-b]pyridin-2-yl)-1H-pyrazolo[4,3-b]pyridin-5-yl)pyridin-3-yl)pentanamide]	34.1%	71%
> 10000 nM	–	CCCC(=O)Nc1cncc(-c2ccc3[nH]nc(-c4nc5c(-c6cc(F)cc(CNS(C)(=O)=O)c6)ccnc5[nH]4)c3n2)c1 [Compound 493, N-(5-(3-(7-(3-fluoro-5-(methylsulfonamidomethyl)phenyl)-3H-imidazo[4,5-b]pyridin-2-yl)-1H-pyrazolo[4,3-b]pyridin-5-yl)pyridin-3-yl)butyramide]	14.8%	43%
> 10000 nM	10 nM	Fc1cccc(-c2ccnc3[nH]c(-c4n[nH]c5ccc(C6CCNCC6)nc45)nc23)c1 [Compound 505, 3-(7-(3-fluorophenyl)-3H-imidazo[4,5-b]pyridin-2-yl)-5-(piperidin-4-yl)-1H-pyrazolo[4,3-b]pyridine]	16%	51%
> 10000 nM	7 nM	Fc1cccc(-c2ccnc3[nH]c(-c4n[nH]c5ccc(-c6cn[nH]c6)nc45)nc23)c1 [Compound 507, 3-(7-(3-fluorophenyl)-3H-imidazo[4,5-b]pyridin-2-yl)-5-(1H-pyrazol-4-yl)-1H-pyrazolo[4,3-b]pyridine]	17%	57%
> 10000 nM	–	Cn1cc(-c2ccc3[nH]nc(-c4nc5c(-c6cccc(F)c6)ccnc5[nH]4)c3n2)cn1 [Compound 508, 3-(7-(3-fluorophenyl)-3H-imidazo[4,5-b]pyridin-2-yl)-5-(1-methyl-1H-pyrazol-4-yl)-1H-pyrazolo[4,3-b]pyridine]	41%	43%
> 10000 nM	2 nM	Fc1cccc(-c2ccnc3[nH]c(-c4n[nH]c5ccc(-c6cncc(OC7CCNCC7)c6)nc45)nc23)c1 [Compound 512, 3-(7-(3-fluorophenyl)-3H-imidazo[4,5-b]pyridin-2-yl)-5-(5-(piperidin-4-yloxy)pyridin-3-yl)-1H-pyrazolo[4,3-b]pyridine]	45%	93%
